SMILES strings stand for the structures. Calls of active or inactive are those of the source. The calls are words filed in the database; no cut-off is given here.

Data set [1] can be described thus: Antioxidant activity assessed as DPPH radical scavenging activity. In kind it is physicochemical. For orientation: Loss of DPPH colour is used to gauge radical scavenging.
Data set [2] can be described thus: Antioxidant activity assessed as AAPH radical scavenging activity by measuring Trolox equivalents after 90 mins by fluorescein probe based ORAC assay. As to conditions: 1.5 h. In kind it is physicochemical.
Data set [3] concerns Rattus norvegicus. Description: Hypoglycemic effect in Wistar rat model of streptozotocin-induced type-2 diabetes mellitus assessed as reduction in blood glucose level at 50 mg/kg, ig after 7 hrs. In kind it is functional. Conditions: po.
The nature of data set [4]: Antioxidant activity assessed as DPPH radical scavenging activity at 20 mg/ml. In kind it is physicochemical.
For data set [5], the system named is Rattus norvegicus. Kind of data set: Hypoglycemic effect in Wistar rat model of streptozotocin-induced type-2 diabetes mellitus assessed as reduction in blood glucose level at 5 mg/kg, ig after 7 hrs. In kind it is functional, organism-based.
Data set [6] is described as follows: Antioxidant activity assessed as DPPH radical scavenging activity at 20 µg/ml. It is filed as physicochemical.
Data set [7] can be described thus: Antioxidant activity assessed as DPPH radical scavenging activity at […]. In kind it is physicochemical.

For `COc1cc(/C=N/NC(=O)c2nn(-c3ccc(F)c(Cl)c3)c(-c3ccc(F)cc3)c2C)ccc1O`, in data set [1], the EC50 is 6.92 mM. Moreover, the Activity in data set [2] worked out at 525 g⁻¹.

`COc1cc(/C=N/NC(=O)c2nn(-c3ccc(Cl)cc3Cl)c(-c3ccc(Cl)cc3)c2C)ccc1O`: in data set [1], the EC50 was 3.55 mM. For the same compound, in data set [2], the Activity was found to be 634 g⁻¹. Besides, the inhibition in vivo at 50 mg/kg in the data set on Rattus norvegicus [3] is 64.9%.

On to `COc1cc(/C=N/NC(=O)c2nn(-c3ccc(C(F)(F)F)cc3)c(-c3ccc(Br)cc3)c2C)ccc1O`, for which the concentration for a half-maximal effect (EC50) in data set [1] is 2.91 mM.

As for `COc1cc(/C=N/NC(=O)c2nn(-c3ccc(F)cc3F)c(-c3ccc(C(F)(F)F)cc3)c2C)ccc1O`, the EC50 in data set [1] turned out to be 2.9 mM. Besides, the Activity in data set [2] was 993 g⁻¹.

Consider `O=C1O[C@H]([C@@H](O)CO)C(O)=C1O` [ASCORBIC ACID], for which, in data set [1], the EC50 stood at 2.07 mM.

As for `Cc1c(C(=O)O)nn(-c2ccc(Cl)cc2Cl)c1-c1ccc(Cl)cc1`, in data set [4], the “inhibition (INH)” value was determined as 17%.

For `COc1cc(/C=N/NC(=O)c2nn(-c3ccc(Cl)cc3Cl)c(-c3ccc(C(F)(F)F)cc3)c2C)ccc1O`, the concentration for a half-maximal effect (EC50) in data set [1] was found to be 4.24 mM. Moreover, in data set [2], the Activity was determined as 401 g⁻¹. In the data set on Rattus norvegicus [3], the inhibition in vivo at 50 mg/kg stood at 35.3%.

As to `COc1cc(/C=N/NC(=O)c2nn(-c3ccc(F)cc3F)c(-c3ccc(F)cc3)c2C)ccc1O`, in data set [1], the EC50 worked out at 3.54 mM. The Activity in data set [2] was found to be 891 g⁻¹.

As for `COc1cc(/C=N/NC(=O)c2nn(-c3ccc(Cl)cc3Cl)c(-c3ccccc3)c2C)ccc1O`, in data set [1], the EC50 was found to be 2.99 mM. Moreover, the Activity in data set [2] worked out at 1076 g⁻¹. Moreover, in the data set on Rattus norvegicus [3], the inhibition in vivo at 50 mg/kg amounted to 26.6%.

For `COc1cc(/C=N/NC(=O)c2nn(-c3ccc(F)c(Cl)c3)c(-c3ccc(Cl)cc3)c2C)ccc1O`, the EC50 in data set [1] is 3.56 mM. In data set [2], the Activity came to 882 g⁻¹.

With `COc1cc(C(=O)O)ccc1O` [VANILLIC ACID], the EC50 in data set [1] is 65.8 mM. Further, in data set [2], the Activity was 2979 g⁻¹.

For the compound `COc1cc(/C=N/NC(=O)c2nn(-c3ccnc4cc(Cl)ccc34)c(-c3ccc(F)cc3)c2C)ccc1O`, in data set [1], the EC50 amounted to 6.45 mM.

For `COc1cc(/C=N/NC(=O)c2nn(-c3ccccc3)c(-c3ccccc3)c2C)ccc1O`, in data set [1], the half-maximal effective concentration (EC50) was determined as 2.46 mM. For the same compound, in data set [2], the Activity came to 611 g⁻¹.

As for `COc1ccc(Cl)cc1C(=O)NCCc1ccc(S(=O)(=O)NC(=O)NC2CCCCC2)cc1`, in the data set with Rattus norvegicus [5], the result was Active.

With `COc1cc(/C=N/NC(=O)c2nn(-c3ccnc4cc(Cl)ccc34)c(-c3ccc(Cl)cc3)c2C)ccc1O`, the EC50 in data set [1] was 4.59 mM.

Consider `COc1cc(/C=N/NC(=O)c2nn(-c3ccc(Cl)c(Cl)c3)c(-c3ccc(Cl)cc3)c2C)ccc1O`, for which the EC50 in data set [1] amounted to 2.6 mM. Besides, the Activity in data set [2] stood at 432 g⁻¹. Further, the inhibition in vivo at 50 mg/kg in the data set on Rattus norvegicus [3] amounted to 33.3%.

With `COc1cc(/C=N/NC(=O)c2nn(-c3ccc(C(F)(F)F)cc3)c(-c3ccc(Cl)cc3)c2C)ccc1O`, in data set [1], the EC50 stood at 2.34 mM. Moreover, the Activity in data set [2] is 867 g⁻¹.

With `COc1cc(C=O)ccc1O` [VANILLIN], the results for the “inhibition (INH)” value in data set [6] and in data set [7] were 7% and 75%, respectively.

The term EC50 denotes the midpoint of the concentration-response curve. As usually defined, the inhibition in vivo is the share of the control response that was lost under treatment.

The record behind these values is ChEMBL document CHEMBL3588847, “1,5-Diarylpyrazole and vanillin hybrids: Synthesis, biological activity and DFT studies” (Eur J Med Chem, 2015).
